Laboratory results reported in patent US20230356105A1, “TETRAAZADODECANE BASED CHELATING AGENTS FOR SEPARATION OF RARE EARTH ELEMENTS AND METHOD THEREFOR” (Ustav Organicke Chemie a Biochemie AV CR V.V.I., priority 2020, published 2023).
Where “and” joins values, the source holds several entries; their conditions need not be identical. Identical values can stand only once. Marks after values point to notes of the source that are not given here.

Legend:
[1] = Separation of Gd/Lu mixture by repeated precipitation using L1 (Example 13); type: physicochemical; settings: for Precipitate concentration [mM] Gd / Precipitate concentration [mM] Lu: dissolved to 200 μL
Description: Stock solutions were pipetted into round-bottom 2 mL Eppendorf tubes as follows: • 1. 10 μL 100 mM aqueous solution of GdCl3 • 2. 10 μL 100 mM aqueous solution of LuCl3 • 3. 20 μL 100 mM aqueous solution of compound • 4. 33.3 μL 3 M MOPS buffer pH=7. • 5. 127.6 μL water.
Nine identical reaction mixtures were prepared and split into three groups A, B, C. Each tube was equipped with one PTFE-coated magnetic stir bar and sealed, and the mixture was stirred on a magnetic stirrer for 24 hours at room temperature. The tubes were then centrifuged and the supernatants were carefully pipetted out and transferred to a new set of tubes. Precipitates from group A were dissolved by addition of 100 μL 1 M HCl at room temperature over the course of 30 mins and then diluted to 200 μL by the addition of 100 μL water. Concentrations of Gd and Lu in the supernatants and in re-dissolved precipitates from group A were determined by ICP-OES. Precipitates from groups B and C were further processed as follows: the precipitates were dissolved by addition of 100 μL 1 M HCl at room temperature at pH 0 over the course of 30 mins, and the pH was then adjusted to approximately 7 by the addition of 50 μL 2 M NaOH, and the overall volume adjusted to 200 μL by the addition of water. The prepared mixtures were subjected to a second round of precipitation and were stirred on a magnetic stirrer for 24 hours at room temperature. Then, the tubes were again centrifuged and supernatants were carefully pipetted out and transferred to a new set of tubes. Samples from group B were treated identically to the samples from group A previously, and the Gd and Lu content in the supernatants and precipitates was determined by ICP-OES. Precipitates from group C were subjected to a third cycle of precipitation and followed by Gd and Lu content determination analogously to the procedures described above.

[2] = Ultrafiltration to remove benzoic acid and effect precipitation of L5 complexes (Example 26); type: physicochemical
Description: Stock solutions were pipetted into a 20 mL glass vial to prepare the reaction mixture: • 1. 938 μL 196 mM aqueous chelator L5 (pH=4) • 2. 836 μL 1000 mM aqueous benzoic acid (stock solution containing 1 equivalent NaOH) • 3. 8000 μL H2O • 4. 952 μL 175.5 mM aqueous LnCl3 solution (from a stock solution containing a mixture of Ln=Nd, Pr, Tb, and Dy, in a ratio of 3.3:1:1:1, Nd:Pr:Tb:Dy)
The reaction solution was then titrated to pH 6.5 by addition of aqueous 2 M NaOH. The solution was stirred on a magnetic stir-plate at room temperature for 1 hour, and the precipitate was removed from the solution by filtration through a 0.45 μtm regenerated cellulose syringe filter. From this filtered solution, 1 mL was set aside for elemental analysis as the “initial” solution, 1 mL was set aside as a “control” solution in a clean 4 mL glass vial with a PTFE-coated stir bar to be stirred at 600 rpm at room temperature on a magnetic stirrer, and the remaining 9 mL were diluted slightly by addition of 2 mL H2O, then filtered on an ultrafiltration system with a nanofiltration membrane with molecular weight cut-off of 100-250 Da (NFS membrane, Synder Filtration, CA, USA), 4 bar N2 to pressurize the system, magnetic stiffing at 250 rpm, and continual addition of water to replace the filtered volume. The filtrate was collected in an Erlenmeyer flask, and a total volume of 50 mL was filtered over 11 hours. After this time, the “retained” reaction mixture, now having a volume of 10.5 mL and with some precipitate present, was transferred to a clean 20 mL glass vial and stirred by PTFE-coated stir bar on a magnetic stirrer at 600 rpm for an additional 10 hours, as was the control solution. After this additional time, samples of both the control solution and the retained solution from the ultrafiltration were prepared for elemental analysis by filtration through 0.45 μm nylon syringe filters. The initial, control, and retained solutions were then analysed by ICP-OES for determination of absolute Nd, Pr, Dy, and Tb content.

[3] = control solution, stirred without ultrafiltration
[4] = initial solution (L5 + benzoic acid, pH 6.5, filtered)
[5] = retained solution after ultrafiltration (100-250 Da membrane)
[6] = retained*, recalculated from end volume 10.5 to original 9.0 mL

Structure (SMILES): O=C(O)CN1CCN(CC(=O)O)CCN(Cc2ccccc2)CCN(CC(=O)O)CC1 [L1, 2,2′,2″-(10-benzyl-1,4,7,10-tetraazacyclododecane-1,4,7-triyl)triacetic Acid]
- Supernatant concentration [mM] Lu ([1]; group A, 1st precipitation): 4.28 mM and 4.35 mM and 4.12 mM and 4.36 mM
- Precipitate concentration [mM] Gd ([1]; group A, 1st precipitation): 4.24 mM and 4.38 mM and 4.22 mM and 4.12 mM
- Precipitate concentration [mM] Lu ([1]; group A, 1st precipitation): 0.99 mM and 1.08 mM and 0.98 mM and 0.90 mM
- Supernatant concentration [mM] Lu ([1]; group B, 2nd precipitation): 0.80 mM and 0.83 mM and 0.77 mM
- Precipitate concentration [mM] Gd ([1]; group B, 2nd precipitation): 3.33 mM and 3.40 mM and 3.70 mM and 3.48 mM
- Precipitate concentration [mM] Lu ([1]; group B, 2nd precipitation): 0.23 mM and 0.21 mM and 0.22 mM (2×)
- Supernatant concentration [mM] Lu ([1]; group C, 3rd precipitation): 0.24** mM and 0.17 mM and 0.16 mM and 0.19 mM
- Precipitate concentration [mM] Lu ([1]; group C, 3rd precipitation): 0.05** mM and 0.07 mM and 0.06 mM

Structure (SMILES): O=C(O)CN1CCN(CC(=O)O)CCN(Cc2cccc3ccccc23)CCN(CC(=O)O)CC1 [L5, 2,2′,2″-(10-(naphthalene-1-ylmethyl)-1,4,7,10-tetraazacyklododekane-1,4,7-triyl)triacetic acid]
- concentration Dy [2, 3]: 760 µM
- concentration Nd [2, 3]: 1800 µM
- concentration Pr [2, 3]: 400 µM
- concentration Tb [2, 3]: 750 µM
- concentration sum of M [2, 3]: 3710 µM
- concentration Dy [2, 4]: 770 µM
- concentration Nd [2, 4]: 1800 µM
- concentration Pr [2, 4]: 400 µM
- concentration Tb [2, 4]: 760 µM
- concentration sum of M [2, 4]: 3730 µM
- concentration Dy [2, 5]: 440 µM
- concentration Nd [2, 5]: 1030 µM
- concentration Pr [2, 5]: 230 µM
- concentration Tb [2, 5]: 420 µM
- concentration sum of M [2, 5]: 2120 µM
- concentration Dy [2, 6]: 510 µM
- concentration Nd [2, 6]: 1200 µM
- concentration Pr [2, 6]: 270 µM
- concentration Tb [2, 6]: 490 µM
- concentration sum of M [2, 6]: 2470 µM
